{
  "source": "paper PMC12775422",
  "about": "(NPJ Biofilms and Microbiomes, 2025)",
  "molecular_target": "T1, ferredoxin PA1551 (Pseudomonas aeruginosa, UniProt Q9I3G6)",
  "T1 sequence (Q9I3G6 1-471)": "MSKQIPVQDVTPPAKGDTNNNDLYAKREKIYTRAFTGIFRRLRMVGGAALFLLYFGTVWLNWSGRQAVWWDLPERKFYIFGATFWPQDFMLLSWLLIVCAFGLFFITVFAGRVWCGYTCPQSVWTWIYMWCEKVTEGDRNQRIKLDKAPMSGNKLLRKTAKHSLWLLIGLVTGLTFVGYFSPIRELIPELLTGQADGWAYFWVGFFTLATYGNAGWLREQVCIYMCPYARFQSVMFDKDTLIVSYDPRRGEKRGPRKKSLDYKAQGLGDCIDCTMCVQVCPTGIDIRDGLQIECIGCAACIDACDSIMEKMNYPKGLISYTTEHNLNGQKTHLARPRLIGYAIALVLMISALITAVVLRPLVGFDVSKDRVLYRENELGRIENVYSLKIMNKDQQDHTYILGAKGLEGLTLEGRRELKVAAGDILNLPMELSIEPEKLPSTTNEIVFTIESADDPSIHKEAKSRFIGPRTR",
  "experiment": "microscale thermophoresis",
  "format": "binding",
  "data": [
    {"smiles": "CCCCCCC(=O)NCc1c(O)c(=O)cc(C)n1C", "note": "[10d, 2-(heptanamido)methyl 3-hydroxy-1,6-dimethylpyridin-4(1H)-one]", "values": [
      {"measurement": "Kd", "result": 57, "unit": "nM"}
    ]}
  ]
}
